Legend:
[1] = target: T1, Recombinant human MAO-A (Homo sapiens, UniProt P21397); assay: MAO-A activity, colorimetric method, tyramine substrate; assay type: biochemical; details: for Specificity of SSAO on MAO-A: ratio of IC50 for MAO-A to IC50 for SSAO; for IC50: recombinant human MAO-A
T1 construct: purchased BD Biosciences (MA, USA)
T1 sequence (P21397 1-527): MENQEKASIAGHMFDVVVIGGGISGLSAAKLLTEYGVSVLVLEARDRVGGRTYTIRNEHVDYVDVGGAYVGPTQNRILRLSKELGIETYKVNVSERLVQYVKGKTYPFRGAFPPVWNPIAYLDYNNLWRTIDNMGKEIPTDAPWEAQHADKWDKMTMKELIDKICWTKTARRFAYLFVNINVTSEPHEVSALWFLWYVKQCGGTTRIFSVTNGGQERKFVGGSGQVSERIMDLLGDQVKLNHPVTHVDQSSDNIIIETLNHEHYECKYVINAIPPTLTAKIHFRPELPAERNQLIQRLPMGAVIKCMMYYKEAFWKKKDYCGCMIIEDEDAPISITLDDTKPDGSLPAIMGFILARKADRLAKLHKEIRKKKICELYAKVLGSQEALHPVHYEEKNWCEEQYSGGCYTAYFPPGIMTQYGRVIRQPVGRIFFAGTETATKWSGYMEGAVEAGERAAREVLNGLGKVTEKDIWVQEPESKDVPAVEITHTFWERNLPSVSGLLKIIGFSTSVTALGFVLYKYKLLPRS
Method: The specificities of the different SSAO inhibitors was tested by determining their abilities to inhibit MAO-A and MAO-B activities in vitro. Recombinant human MAO-A and human MAO-B enzymes were obtained from BD Biosciences (MA, USA). MAO activity was measured using the colorimetric method essentially as described (Holt, A. et al. (1997) Anal. Biochem. 244: 384). A pre-determined amount of inhibitor diluted in 0.2M potassium phosphate buffer, pH 7.6, was added to each well, if required. The amount of inhibitor varied in each assay but was generally at a final concentration of between 1 nM and 1 mM. Controls lacked inhibitor. The following agents were then added to a final reaction volume of 200 μL in 0.2M potassium phosphate buffer, pH 7.6: 0.04 mg/ml of MAO-A or 0.07 mg/ml MAO-B enzyme, 15 μL of 10 mM tyramine substrate (for MAO-A), or 15 μL 100 mM benzylamine substrate (for MAO-B), and 50 μL of freshly made chromogenic solution. The chromogenic solution contained 750 μM vanillic acid (Sigma#V-2250), 400 μM 4-aminoantipyrine (Sigma #A-4328) and 12 U/mL horseradish peroxidase (Sigma #P-8250) in order to cause a change of 0.5 OD A490 nm/h. This was within the linear response range for the assay. The plates were incubated for 60 min at 37° C. The increase in absorbance, reflecting MAO activity, was measured at 490 nm using microplate spectrophotometer (Power Wave 40, Bio-Tek Inst.). Inhibition was presented as percent inhibition compared to control after correcting for background absorbance and IC50 values calculated using GraphPad Prism software. Clorgyline and pargyline (inhibitors of MAO-A and -B, respectively) at 1 μM, were added to some wells as positive controls for MAO inhibition. […] The compounds described in the present invention are therefore expected to have therapeutic utility in the treatment of diseases and conditions in which the activity of SSAO/VAP-1 plays a role, that is, in SSAO/VAP-1 mediated diseases and conditions.

[2] = system: carrageenan-induced paw edema; assay: Carrageenan-induced rat paw edema; assay type: in vivo, Sprague Dawley rats; details: for paw swelling: 50 mg/kg orally 60 min prior to carrageenan
Text: Carrageenan-induced paw edema has been extensively used in the evaluation of anti-inflammatory effects of various therapeutic agents and is a useful experimental system for assessing the efficacy of compounds to alleviate acute inflammation (Whiteley P E and Dalrymple S A, 1998. Models of inflammation: carrageenan-induced paw edema in the rat, in Current Protocols in Pharmacology. Enna S J, Williams M, Ferkany J W, Kenaki T, Porsolt R E and Sullivan J P, eds., pp 5.4.1-5.4.3, John Wiley & Sons, New York). The full development of the edema is neutrophil-dependent (Salvemini D. et al. (1996) Br. J. Pharmacol. 118: 829).
Female Sprague Dawley rats were used in groups of 8-12 and compounds of the invention were administered orally at up to 50 mg/kg 60 min prior to carrageenan exposure. The control group was administered orally an equal volume of vehicle (PBS). Edema in the paws was induced as previously described by injecting 50 μL of a 0.5% solution of carrageenan (Type IV Lambda, Sigma) in saline with a 27-G needle s.c. in the right foot pad. (See Whiteley P. E. and Dalrymple S. A. (1998), Models of inflammation: carrageenan-induced paw edema in the rat, in Current Protocols in Pharmacology, Enna S J, Williams M, Ferkany J W, Kenaki T, Porsolt R E and Sullivan J P, eds., pp 5.4.1-5.4.3, John Wiley & Sons, New York) The size of the tested foot of each animal was measured volumetrically with a plethysmometer immediately after injection of carrageenan solution and at various times up to 360 min after carrageenan induction.
Results of experiments with the compounds II-1-E, I-1-Z, and I-2-Z are shown in FIG. 1, FIG. 5, and FIG. 6, respectively.
Using the same procedure discussed above, the size of the foot of each animal was measured volumetrically before induction of edema, and at 1.5, 3, 4.5 and 6 h after the carrageenan injection. The absolute decreases in paw swelling at 6 h with 1, 10 and 50 mg/kg were 5±11%, 20±9% and 32±6% respectively. Statistical analyses were performed with repeated measures ANOVA followed by Dunnett's test for multiple comparisons.
Paw edema was induced in groups of eight Sprague Dawley rats by injecting 50 μL of a 0.375% solution of carrageenan X in saline, subcutaneously in the foot. After one hour animals were orally dosed once with PBS, compound I-1-Z at 50 mg/kg or with indomethacin at 3 mg/kg. The size of the paws were measured before induction of edema (baseline), and at 1.5, 3, 4.5 and 6 h after carrageenan injection. […] Statistical analyses were performed with repeated measures ANOVA followed by Dunnett's test for multiple comparisons.
Groups of eight Sprague Dawley rats were orally administered PBS, or 0.01, 0.1 or 1 mg/kg of compound I-1-Z. One hour later paw edema was induced in all animals by injecting 50 μL of a 0.5% solution of carrageenan X in saline, subcutaneously into the footpad. The size of the foot of each animal was measured volumetrically before induction of edema, and at 1.5, 3, 4.5 and 6 h after the carrageenan injection. The absolute decreases in paw swelling at 6 h with 0.1 and 1 mg/kg were 34±8 and 29±8% respectively. Statistical analyses were performed with repeated measures ANOVA followed by Dunnett's test for multiple comparisons.

SMILES | Specificity of SSAO on MAO-A [1] | IC50 [1] [µM] | absolute decrease in paw swelling at 6 h ([2]; 0.1 mg/kg orally one hour before carrageenan, low doses, FIG. 13) [%] | absolute decrease in paw swelling at 6 h ([2]; 1 mg/kg orally one hour before carrageenan, low doses, FIG. 13) [%] | absolute decrease in paw swelling at 6 h ([2]; 1 mg/kg, dose response, FIG. 7) [%] | absolute decrease in paw swelling at 6 h ([2]; 10 mg/kg, dose response, FIG. 7) [%] | paw swelling ([2]; between 2-6 h) | absolute decrease in paw swelling at 6 h ([2]; 50 mg/kg, dose response, FIG. 7) [%] | inhibition of paw edema at 6 h ([2]; therapeutic dosing: 50 mg/kg orally one hour after 0.375% carrageenan, FIG. 8) [%] | paw swelling ([2]; between 3-6 h)
COc1ccc(C/C(=C/F)CN)cc1.Cl [Compound I-1-Z, (Z)-3-Fluoro-2-(4-methoxybenzyl)-allylamine hydrochloride] | 4700 | 85 | 34±8 | 29±8 | 5±11 | 20±9 | clearly reduced the paw swelling | 32±6 | 50±4 | 
CCOc1ccc(C/C(=C/F)CN)cc1.Cl [Compound I-2-Z, (Z)-3-Fluoro-2-(4-ethoxybenzyl)-allylamine hydrochloride] | 7900 | 79 |  |  |  |  |  |  |  | clearly reduced the paw swelling
NC/C(F)=C\Cc1cc(F)cc(C(F)(F)F)c1 [II-1-E, (E)-2-Fluoro-4-(3-fluoro-5-trifluoromethylphenyl)-but-2-enylamine] | >2400 | > 87 |  |  |  |  | clearly reduced the paw swelling |  |  | 
